System: spores of Aspergillus niger and Aspergillus versicolor
Test: ISO 846 Method B: determination of the fungistatic activity of films, complete nutrient medium with carbon source
Assay type: cell-based
Conditions: summary of ISO 846 loading tests (methods A and B)
Method: Commercially conventional dispersions based on poly(vinyl alcohol)-stabilized poly(dibutyl maleinate-co-vinyl acetate) were, where necessary, set to the required pH using 10% strength sodium hydroxide solution and subsequently finished with fungicide. In addition, to the dispersion was added either a 1% strength ethanolic solution of the fungicide or an aqueous suspension which had been prepared by weighing out exactly 500 mg of fungicide into a 50 ml measuring flask and subsequently making up to 50 ml with deionized water to the calibration mark. After addition, the substance was distributed well in the dispersion and approximately 200 μm thick films were produced using a drawing frame with wet application of 400 μm.
The action of these films on microorganisms was determined using the method ISO 846.
The samples were applied to a complete nutrient medium (with carbon source) and inoculated with a spore suspension of various fungi. […] Method B is intended to reflect the situation of a surface contamination of the sample in practice (such as dirt or organic deposits).
The inoculum in all the determinations was performed using spores of Aspergillus niger and Aspergillus versicolor.
The samples, after expiry of the incubation period of 28 days, were assessed in methods A and B using the following rating key in accordance with ISO 846 (a, b=individual results of duplicate determination).

Oc1ccc(/C=C/c2cc(O)cc(O)c2)cc1 [trans-resveratrol, trans-3,5,4′-trihydroxystilbene]
fungicidal activity in polymer dispersions made into films: exhibits fungicidal activity
